The values that follow come from EP0267740A1, “Naphthyridine and pyridopyrazine compounds and pharmaceutical usage thereof” (SCHERING CORPORATION, priority 1986, dated 1988).

SMILES strings stand for the structures.

Assay [1] has as its system release of SRS-A from sensitized guinea pig lung fragments. Put plainly: Measurement of SRS-A release from sensitized guinea pig lung fragments after antigen (ovalbumin) challenge. It counts as cell-based. Conditions: Dose (Molar Conc.) 1 x 10^-5; lung fragments incubated with compound 12 min at 37°C, challenge with 20µg ovalbumin/ml. The protocol:
The anti-allergy property of the compounds of this invention is evaluated by measuring the inhibition of the release of the mediator SRS-A (slow reacting substance of anaphylaxis) from sensitized guinea pig lung fragments after antigen challenge.
The release of SRS-A and histamine was studied in lungs from actively sensitized guinea pigs. Male Hartley guinea pigs (250-300 g, obtained from Charles River or Dutchland Farms) were sensitized with 5 mg ovalbumin injected intraperitoneally and 5 mg subcutaneously in 1 ml saline on day one, and 5 mg ovalbumin injected intraperitoneally on day four. The sensitized animals were used 3-4 weeks later.
Sensitized guinea pigs were killed by a blow to the head and the lungs removed and cleaned of visable connective tissue, trachea and large blood vessels. The lungs from individual animals were sliced into fragments approximately 1 mm in thickness using a McIlwain chopper and then washed with oxygenated Tyrode's buffer. Weighed aliquots (approximately 400 mg wet weight) of lung were transferred into vials containing 2 ml of fresh Tyrode's solution and incubated in the presence or absence of test compound for 12 min at 37°C followed by challenge of the tissue with 20µg ovalbumin/ml (final concentration). After an additional 15 min incubation, the vials were cooled to 4°C and 1.5 ml of clear supernatant media was removed and mixed with 6 ml of cold 100% ethanol. This mixture was thoroughly vortexed and kept at -15°C for 30 min to allow precipitation of protein. The samples were then centrifuged at 1000 x g for 15 min at 2°C and the clear supernatant fluid removed into polyethylene tubes and taken to dryness at 50°C under a stream of N₂ gas. The samples were stored at -70°C until assayed for SRS-A by bioassay or radioimmune assay.

Assay [2] in a line: Reversed Passive Arthus Reaction (RPAR) paw technique, anti-inflammatory test. The format is in vivo, Male Lewis inbred albino rats. Conditions: Oral Dose 25 mg/kg by gavage in methyl cellulose, rat paw volume 2 hours post-challenge. Here is the method: The compounds of this invention are also effective for the treatment of inflammation; thus they are useful for the treatment of arthritis, bursitis, tendonitis, gout and other inflammatory conditions. […] The potency of the compounds described and claimed herein for treatment of inflammatory conditions is determined using indomethacin as the standard.
Male Lewis inbred albino rats weighing 180-220 grams obtained from Charles River Breeding Laboratories are used in these experiments. The rats are housed 3 animals/cage and food and water are allowed ad libitum. The animals are numbered 1-3 in each cage and color marked for identification purposes.
All reagents and drugs are prepared just prior to the study. Crystallized and lyophilized bovine serum albumin (BSA), obtained from Sigma Chemical Company, is solubilized without shaking in cold sterile pyrogen free saline (10 mg/ml). […]
Groups of animals (6/group) are dosed with drug in MC by gavage one hour prior to sensitization with BSA. […] The volume of mercury displaced is converted to weight and recorded. […] Paw volumes are also recorded with a plethysmograph during the development of the inflammation at 2 and 4 hours post-challenge, and the results are shown in Table B below.

As for `CCCCc1c(O)c2cccnc2n(-c2ccc3c(c2)CCC3)c1=O` [3-(n-BUTYL)-4-HYDROXY-1-(5-INDANYL)-1,8-NAPHTHYRIDIN-2(1H)-ONE], the “% Inhibition (INHIBITION OF SRS-A RELEASE FROM GUINEA PIG LUNG)” value in assay [1] is listed as 55%. Further, the “% Inhibition 2 hrs.” value in assay [2] is reported as 23%.
Turning to `CCCCc1c(O)c2cccnc2n(-c2cccnc2)c1=O`, in assay [1], the “% Inhibition (INHIBITION OF SRS-A RELEASE FROM GUINEA PIG LUNG)” value was 33%. In assay [2], the “% Inhibition 2 hrs.” value is 64%.
As to `O=C1CCN(c2ccccc2)N1` [1-phenyl-3-pyrazolidinone, reference compound], the “% Inhibition (INHIBITION OF SRS-A RELEASE FROM GUINEA PIG LUNG)” value in assay [1] was found to be 41%.
